{
  "source": "patent US20230414626A1",
  "about": "“INDUCTION OF FERROPTOSIS FOR CANCER THERAPY” (Memorial Sloan Kettering Cancer Center, priority 2020, published 2023)",
  "tested_on": "PI3K-mutated BT474 breast cancer xenograft tumors",
  "assay": "In vivo xenograft mouse model, GPX4-iKO BT474",
  "details": "nu/nu mice, CCI-779 2 mg/kg daily i.p., Dox diet induces GPX4 knockout",
  "protocol": "FIG. 6 A-F. Combination of mTORC1 inhibition with ferroptosis induction leads to tumor regression in vivo. (A) CRISPR/Cas9-mediated, Dox-induced GPX4 knockout (GPX4-iKO) in BT474 cells, monitored by western blot. (B) Images of resected tumors from mice xenografted with GPX4-iKO BT474 cells. Groups of mice were treated with CCI-779 and/or Dox as indicated (n=6 per group). See Methods for detail. (C) Representative haematoxylin and eosin (H&E) and immunostaining images of GPX4, Ki67, PTGS2 and pS235/236 S6, all counterstained with haematoxylin (blue), are shown from sections of xenografted tumors. Scale bar, 50 μm. (D) Growth curves of BT474 tumors of each group. […]\nFIG. 13 A-E. Combination of mTORC1 inhibition with ferroptosis induction leads to tumor regression. […] (B) BT474 tumor volume was measured every day for each mouse. […] (E) PC-3 tumor volume was measured every day for each mouse. […]\n17-β-estradiol 60-day release pellets were implanted subcutaneously into the left flank 7 days before tumor inoculation. […] Tumor growth was monitored regularly via external caliper measurements. […] The maximum width (X) and length (Y) of the tumor were measured every day and the volume (V) was calculated using the formula: V=(X2Y)/2. Tumor growth was monitored over time. For all experiments, mice were sacrificed at a pre-determined endpoint. […]",
  "data": [
    {"smiles": "CO[C@H]1C[C@@H]2CC[C@@H](C)[C@@](O)(O2)C(=O)C(=O)N2CCCC[C@H]2C(=O)O[C@H]([C@H](C)C[C@@H]2CC[C@@H](OC(=O)C(C)(CO)CO)[C@H](OC)C2)CC(=O)[C@H](C)/C=C(\\C)[C@@H](O)[C@@H](OC)C(=O)[C@H](C)C[C@H](C)/C=C/C=C/C=C/1C", "note": "[CCI-779, Temsirolimus]", "values": [
      {"measurement": "tumor growth", "value": "decelerated tumor growth"}
    ]}
  ]
}
